Experimental data reported in paper PMC9557946, “Intermittent MEK inhibition for the treatment of metastatic uveal melanoma” (Frontiers in Oncology, 2022).

Assays:
[1] = tested on: metastatic uveal melanoma; experiment: Phase Ib trial of intermittent selumetinib: clinical efficacy (RECIST v1.1, PFS, OS); type: in vivo, human
Text: This was a multi-center, open-label, phase Ib study conducted at Columbia University Irving Medical Center (New York, NY), University of Texas MD Anderson Cancer Center (Houston, TX), and Memorial Sloan Kettering Cancer Center (New York, NY). The primary objective of this study was to determine the maximum tolerated dose (MTD) of selumetinib administered using an intermittent dosing schedule in patients with metastatic UM. […] Exploratory objectives included pharmacodynamic (PD) assessment of target inhibition of the MEK pathway.
Descriptive statistics were used to report baseline characteristics of the study population. The observed rate and estimated rate of DLT were reported for each dose level along with the 90% probability interval. The number and percentage of patients with adverse events were summarized taking the highest grade and reported by grade for AEs that were at least possibly related to treatment. AEs with at prevalence of least 10% were reported separately. The overall response rate (ORR) was defined as a confirmed complete response (CR) or partial response (PR) according to RECIST 1.1 criteria ([18]) and reported by dose level. Disease control rate (DCR) was defined as the percentage of patients with a confirmed CR, PR or stable disease. PFS was measured from date of enrollment until the date of progression or death, whichever occurred first. OS was defined as the time from the date of registration to the date of death by any cause.
Imaging was obtained at baseline, at 8 weeks after start of study treatment, and then every 8 weeks thereafter. Imaging of the chest, abdomen, and pelvis was required at each time point, with contrast enhanced MRI of the liver performed whenever possible. Response was assessed using RECIST v.1.1 criteria by investigator assessment. Criteria for removal from study included radiographic or clinical disease progression, or unacceptable toxicity.

[2] = clinical; settings: human, in vivo
Method: Non-compartmental analyses were performed on the data for day 1, 2, 15 and 17 using Winnonlin software (Phoenix Winnonlin 8.3.1.5014, Certara L.P., Princeton, NJ). […] Data were summarized per dose level and per occasion. Dose-exposure relationships were explored by plotting dose versus the various parameters. Accumulation was investigated using the AUC assessed at various days.

[3] = All Levels, investigator assessed RECIST v1.1
[4] = Level 1 (100 mg BID), investigator assessed RECIST v1.1
[5] = Level 2 (125 mg BID), investigator assessed RECIST v1.1
[6] = Level 3 (150 mg BID), investigator assessed RECIST v1.1
[7] = Level 4 (175 mg BID), investigator assessed RECIST v1.1

Cn1cnc2c(F)c(Nc3ccc(Br)cc3Cl)c(C(=O)NOCCO)cc21 [selumetinib]
median PFS ([1]; 125mg twice daily cohort): 1.7 months | Complete Response (CR) [1, 3]: 0 | Partial Response (PR) [1, 3]: 0 | Median duration of Stable Disease ([1]; Level 1 (100 mg BID)): 7.1 months | Complete Response (CR) [1, 4]: 0 | Overall Response Rate (ORR) [1, 4]: 0 | Partial Response (PR) [1, 4]: 0 | Median Time to Progression (range) ([1]; Level 1 (100 mg BID), range 1.2-10.8): 3.4 months (1.2-10.8) | Median duration of Stable Disease ([1]; Level 2 (125 mg BID)): 4.1 months | Complete Response (CR) [1, 5]: 0 | Overall Response Rate (ORR) [1, 5]: 0 | Partial Response (PR) [1, 5]: 0 | Median Time to Progression (range) ([1]; Level 2 (125 mg BID), range 0.9-5.5): 1.7 months (0.9-5.5) | Median duration of Stable Disease ([1]; Level 3 (150 mg BID)): 4.9 months | Complete Response (CR) [1, 6]: 0 | Overall Response Rate (ORR) [1, 6]: 0 | Partial Response (PR) [1, 6]: 0 | Median Time to Progression (range) ([1]; Level 3 (150 mg BID), range 0.9-6.2): 3.7 months (0.9-6.2) | Complete Response (CR) [1, 7]: 0 | Overall Response Rate (ORR) [1, 7]: 0 | Partial Response (PR) [1, 7]: 0 | Progressive Disease (PD), patients/total (%) [1, 7]: 0 | ORR ([1]; all 29 patients, RECIST v1.1): 0% | best response of stable disease, percent of patients ([1]; at 8 weeks from treatment initiation, n=11 of 29): 38% | median progression-free response by cohort ([1]; range across dose cohorts): 1.7-3.7 months | median PFS ([1]; total population (29 patients), 95% CI 1.7, 4.5): 1.8 months | median OS ([1]; total population (29 patients), 95% CI 5.3, 11.5): 7.1 months | half-life [2]: 4.3 h | Tmax ([2]; po): ~1.7 h
